Legend:
[1] = MRT in Sprague-Dawley rat at 2 mg/kg, iv measured after 24 hrs by LC-MS/MS analysis; format: ADME, organism-based; details: in vivo
[2] = Oral bioavailability in Sprague-Dawley rat at 10 mg/kg measured after 24 hrs by LC-MS/MS analysis; format: ADME, organism-based; details: in vivo
Mus musculus [3] = test: Anti-inflammatory activity against po dosed LPS-induced ALI C57BL/6 mouse model assessed as decrease in TNF-alpha level in serum treated 1 hr prior to LPS challenge and measured after 48 hrs by ELISA; format: functional, organism-based; details: dose 2-50 mg/kg, time 49.0 hrs, DDE = dose-dependent effect
[4] = Acute toxicity in ICR mouse assessed as pathological changes of lungs at 1500 mg/kg, po administered as single dose measured after 7 days by H and E staining based assay; format: organism-based; details: in vivo, time 7 day
[5] = AUC(last) in Sprague-Dawley rat at 10 mg/kg, po measured after 24 hrs by LC-MS/MS analysis; format: ADME, organism-based; design: dose 10 mg/kg, time 24 hrs, route po; details: in vivo
[6] = Half life in Sprague-Dawley rat at 10 mg/kg, po measured for 24 hrs by LC-MS/MS analysis; format: ADME, organism-based; details: in vivo
[7] = MRT in Sprague-Dawley rat at 10 mg/kg, po measured after 24 hrs by LC-MS/MS analysis; format: ADME, organism-based; details: in vivo
Mus musculus [8] = test: In vivo inhibition of cathepsin C in po dosed LPS-induced ALI C57BL/6 mouse model assessed as downregulation of Cat G activity in blood treated 1 hr prior to LPS challenge and measured after 48 hrs; format: functional, organism-based; details: dose 2-50 mg/kg, time 49.0 hrs, DDE = dose-dependent effect
[9] = Acute toxicity in ICR mouse assessed as pathological changes of kidney at 1500 mg/kg, po administered as single dose measured after 7 days by H and E staining based assay; format: organism-based; details: in vivo, time 7 day
Cathepsin B = Cathepsin B (Homo sapiens, UniProt P07858); test: Inhibition of human recombinant Cathepsin B using Z-Leu-Arg-AMC as substrate pretreated for 60 mins followed by substrate addition and incubated for 30 mins by microplate reader assay
Mus musculus [10] = test: In vivo inhibition of cathepsin C in bone marrow of po dosed LPS-induced ALI C57BL/6 mouse model treated 1 hr prior to LPS challenge and measured after 48 hrs; format: functional, organism-based; details: dose 2-50 mg/kg, time 49.0 hrs, DDE = dose-dependent effect
Mus musculus [11] = test: In vivo inhibition of cathepsin C in po dosed LPS-induced ALI C57BL/6 mouse model assessed as downregulation of PR3 activity in bone marrow treated 1 hr prior to LPS challenge and measured after 48 hrs; format: functional, organism-based; details: dose 2-50 mg/kg, time 49.0 hrs, DDE = dose-dependent effect
[12] = Acute toxicity in ICR mouse assessed as pathological changes of heart at 1500 mg/kg, po administered as single dose measured after 7 days by H and E staining based assay; format: organism-based; details: in vivo, time 7 day
Mus musculus [13] = test: Anti-inflammatory activity against po dosed LPS-induced ALI C57BL/6 mouse model assessed as decrease in MPO activity in lungs treated 1 hr prior to LPS challenge and measured after 48 hrs; format: functional, organism-based; details: dose 2-50 mg/kg, time 49.0 hrs, DDE = dose-dependent effect
[14] = AUC(last) in Sprague-Dawley rat at 2 mg/kg, iv measured after 24 hrs by LC-MS/MS analysis; format: ADME, organism-based; design: dose 2 mg/kg, time 24 hrs, route iv; details: in vivo
[15] = Cmax in Sprague-Dawley rat at 10 mg/kg, po measured after 24 hrs by LC-MS/MS analysis; format: ADME, organism-based; design: dose 10 mg/kg, time 24 hrs, route po; details: in vivo
[16] = Acute toxicity in ICR mouse assessed as mortality at 1500 mg/kg, po administered as single dose and measured for 7 days; format: organism-based; details: in vivo, time 7 day
[17] = Half life in Sprague-Dawley rat at 2 mg/kg, iv measured for 24 hrs by LC-MS/MS analysis; format: ADME, organism-based; details: in vivo
[18] = target: T1, Dipeptidyl peptidase 1 (Mus musculus) (UniProt P97821); test: Inhibition of Cathepsin C in C57BL/6 mouse Bone marrow cells assessed as reduction of NSPs stability by measuring stability of protease 3 at 1 uM treated for 6 hrs by Western blotting analysis; format: cell-based; design: scale not given: the % may be the effect or the level left; details: Bone marrow cell
T1 sequence (whole entry): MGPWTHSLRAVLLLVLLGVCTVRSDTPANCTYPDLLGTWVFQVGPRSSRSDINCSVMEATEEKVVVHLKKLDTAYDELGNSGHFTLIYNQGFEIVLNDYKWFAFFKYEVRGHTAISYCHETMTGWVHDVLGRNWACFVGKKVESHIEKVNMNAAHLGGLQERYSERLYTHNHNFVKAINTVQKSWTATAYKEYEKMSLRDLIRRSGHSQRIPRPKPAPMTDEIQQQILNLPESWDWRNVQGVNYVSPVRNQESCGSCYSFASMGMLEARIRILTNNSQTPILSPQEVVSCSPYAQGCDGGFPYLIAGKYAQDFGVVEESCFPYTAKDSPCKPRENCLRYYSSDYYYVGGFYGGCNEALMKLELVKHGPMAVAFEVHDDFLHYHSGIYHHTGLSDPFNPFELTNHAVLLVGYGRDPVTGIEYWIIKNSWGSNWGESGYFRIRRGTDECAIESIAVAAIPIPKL

[19] = Tmax in Sprague-Dawley rat at 10 mg/kg, po measured after 24 hrs by LC-MS/MS analysis; format: ADME, organism-based; details: in vivo
Mus musculus [20] = test: In vivo inhibition of cathepsin C in po dosed LPS-induced ALI C57BL/6 mouse model assessed as downregulation of PR3 activity in blood treated 1 hr prior to LPS challenge and measured after 48 hrs; format: functional, organism-based; details: dose 2-50 mg/kg, time 49.0 hrs, DDE = dose-dependent effect
[21] = target: T1, Dipeptidyl peptidase 1 (Mus musculus); test: Inhibition of Cathepsin C in C57BL/6 mouse Bone marrow cells assessed as reduction of NSPs stability by measuring stability of cathepsin G at 1 uM treated for 12 hrs by Western blotting analysis; format: cell-based; design: scale not given: the % may be the effect or the level left; details: Bone marrow cell
Mus musculus [22] = test: Anti-inflammatory activity against po dosed LPS-induced ALI C57BL/6 mouse model assessed as decrease in IL-6 level in lungs treated 1 hr prior to LPS challenge and measured after 48 hrs by ELISA; format: functional, organism-based; details: dose 2-50 mg/kg, time 49.0 hrs, DDE = dose-dependent effect
Mus musculus [23] = test: Anti-inflammatory activity against po dosed LPS-induced ALI C57BL/6 mouse model assessed as decrease in GM-CSF level in lungs treated 1 hr prior to LPS challenge and measured after 48 hrs by ELISA; format: functional, organism-based; details: dose 2-50 mg/kg, time 49.0 hrs, DDE = dose-dependent effect
Mus musculus [24] = test: Anti-inflammatory activity against po dosed LPS-induced ALI C57BL/6 mouse model assessed as increase in IL-10 level in lungs treated 1 hr prior to LPS challenge and measured after 48 hrs by ELISA; format: functional, organism-based; details: dose 2-50 mg/kg, time 49.0 hrs, DDE = dose-dependent effect
[25] = target: T1, Dipeptidyl peptidase 1 (Mus musculus); test: Inhibition of Cathepsin C in C57BL/6 mouse Bone marrow cells assessed as reduction of NSPs stability by measuring stability of cathepsin G at 1 uM treated for 48 hrs by Western blotting analysis; format: cell-based; design: scale not given: the % may be the effect or the level left; details: Bone marrow cell
Mus musculus [26] = test: Anti-inflammatory activity against po dosed LPS-induced ALI C57BL/6 mouse model assessed as increase in IL-10 level in serum treated 1 hr prior to LPS challenge and measured after 48 hrs by ELISA; format: functional, organism-based; details: dose 2-50 mg/kg, time 49.0 hrs, DDE = dose-dependent effect
Dipeptidyl peptidase 1 = Dipeptidyl peptidase 1 (Homo sapiens, UniProt P53634); test: Inhibition of Cathepsin C in human THP-1 cells using H-Gly-Phe-AFC as substrate pretreated for 1 hr followed by substrate addition and incubated for 60 mins by microplate reader assay; format: cell-based
Sequence of Dipeptidyl peptidase 1 (P53634 25-134 limits assumed): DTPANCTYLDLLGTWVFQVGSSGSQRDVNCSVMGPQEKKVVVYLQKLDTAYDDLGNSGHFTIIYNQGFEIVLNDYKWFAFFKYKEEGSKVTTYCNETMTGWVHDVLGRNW
Sequence of Dipeptidyl peptidase 1 (P53634 231-394 limits assumed): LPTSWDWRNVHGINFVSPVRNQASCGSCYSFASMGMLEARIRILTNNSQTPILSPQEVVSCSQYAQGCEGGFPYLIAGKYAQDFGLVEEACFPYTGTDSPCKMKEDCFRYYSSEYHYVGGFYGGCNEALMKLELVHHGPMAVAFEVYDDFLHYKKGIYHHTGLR
Sequence of Dipeptidyl peptidase 1 (P53634 395-463 limits assumed): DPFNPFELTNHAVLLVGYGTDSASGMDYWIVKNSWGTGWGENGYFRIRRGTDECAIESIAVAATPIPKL

[27] = Acute toxicity in ICR mouse assessed as body weight loss at 1500 mg/kg, po administered as single dose and measured for 7 days; format: organism-based; details: in vivo, time 7 day
[28] = AUC(0 to infinity) in Sprague-Dawley rat at 10 mg/kg, po by LC-MS/MS analysis; format: ADME, organism-based; design: time infinity, dose 10 mg/kg, route po; details: in vivo
Mus musculus [29] = test: In vivo inhibition of cathepsin C in po dosed LPS-induced ALI C57BL/6 mouse model assessed as downregulation of neutrophil elastase activity in bone marrow treated 1 hr prior to LPS challenge and measured after 48 hrs; format: functional, organism-based; details: dose 2-50 mg/kg, time 49.0 hrs, DDE = dose-dependent effect

CC(=O)Nc1cccc(Nc2nc(Nc3ccc(-c4ccsc4)cn3)ncc2Cl)c1
MRT [1]: 3.38 h
F [2]: 42.07%
Activity (Mus musculus [3]): Dde
Activity [4]: Non-Toxic
AUC(0-t) at 24 h [5]: 511 ng·h/mL
half-life [6]: 1.79 h
MRT [7]: 2.35 h
inhibition (Mus musculus [8]): Dde
Activity [9]: Non-Toxic
IC50 (Cathepsin B): > 5000 nM
inhibition (Mus musculus [10]): Dde
inhibition (Mus musculus [11]): Dde
Activity [12]: Non-Toxic
Activity (Mus musculus [13]): Dde
AUC(0-t) at 24 h [14]: 1440 ng·h/mL
Cmax [15]: 177 ng/mL
Activity [16]: Non-Toxic
half-life [17]: 2.5 h
Activity [18]: 95.6%
Tmax [19]: 0.77 h
inhibition (Mus musculus [20]): Dde
Activity [21]: 81.1%
Activity (Mus musculus [22]): Dde
Activity (Mus musculus [23]): Dde
Activity (Mus musculus [24]): Dde
Activity [25]: 50.1%
Activity (Mus musculus [26]): Dde
IC50 (Dipeptidyl peptidase 1): 115 nM
Activity [27]: Non-Toxic
AUC [28]: 473.18 ng·h/mL
inhibition (Mus musculus [29]): Dde
